Assay results: US20230085307A1, “PYRIDAZINONE COMPOUND AND HERBICIDE” (NISSAN CHEMICAL CORPORATION, priority 2019, published 2023)

What was measured:
wild oat [1] = assay: Test Example 5: herbicidal effect by foliage application, plastic box (Table 20, symbol I); type: in vivo, wild oat (Avena fatua); conditions: foliage application, 320 g/ha, three weeks after application
Summary of the method: (§1)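 Plants sown in sterilized diluvial soil and grown 14 days in a greenhouse at 25° C to 30° C, then sprayed on the foliage with the compound's emulsion diluted in water to a predetermined herbicide amount. Injury to weeds and crops scored three weeks after application on a visual rating scale.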

windgrass [2] = assay: Test Example 4: herbicidal effect by soil treatment (Table 19, symbol L); type: in vivo, windgrass (Apera spica-venti); conditions: amount of applied herbicide 320 g/ha
Summary of the method: (§2)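 Three weeks of greenhouse growth at 25° C. to 30° C. followed a uniform surface spray of water-diluted emulsion at a predetermined herbicide amount. Seeds had been sown beforehand under about 1.5 cm of sterilized diluvial soil. Grading followed criteria set out in an earlier test.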

southern crabgrass [3] = assay: Test Example 5: herbicidal effect by foliage application, plastic box (Table 20, symbol F); type: in vivo, southern crabgrass (Digitaria ciliaris); conditions: foliage application, 320 g/ha, three weeks after application
Summary of the method: as §1

redroot pigweed [4] = assay: Test Example 5: herbicidal effect by foliage application, plastic box (Table 20, symbol N); type: in vivo, redroot pigweed (Amaranthus retroflexus); conditions: foliage application, 320 g/ha, three weeks after application
Summary of the method: as §1

blackgrass [5] = assay: Test Example 5: herbicidal effect by foliage application, plastic box (Table 20, symbol J); type: in vivo, blackgrass (Alopecurus myosuroides); conditions: foliage application, 320 g/ha, three weeks after application
Summary of the method: as §1

lambsquarters [6] = assay: Test Example 4: herbicidal effect by soil treatment (Table 19, symbol O); type: in vivo, lambsquarters (Chenopodium album); conditions: amount of applied herbicide 320 g/ha
Summary of the method: as §2

southern crabgrass [7] = assay: Test Example 4: herbicidal effect by soil treatment (Table 19, symbol F); type: in vivo, southern crabgrass (Digitaria ciliaris); conditions: amount of applied herbicide 320 g/ha
Summary of the method: as §2

wild oat [8] = assay: Test Example 4: herbicidal effect by soil treatment (Table 19, symbol I); type: in vivo, wild oat (Avena fatua); conditions: amount of applied herbicide 320 g/ha
Summary of the method: as §2

chickweed [9] = assay: Test Example 4: herbicidal effect by soil treatment (Table 19, symbol P); type: in vivo, common chickweed (Stellaria media); conditions: amount of applied herbicide 320 g/ha
Summary of the method: as §2

oval-leafed pondweed = assay: Test Example 1: herbicidal activity, application before weed generation under submerged conditions (Table 16, symbol C); type: in vivo, oval-leafed pondweed (Monochoria vaginalis); conditions: 320 g/ha applied herbicide
Summary of the method: (§3)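 Alluvial soil was flooded to 4 cm depth, weed seeds were sown mixed and 2.5-leaf rice seedlings were transplanted. On sowing day, the compound's emulsion, diluted in water to a set dose, was applied to the water surface. Plants grew at 25–30 °C and were scored 0–5 after three weeks.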

false cleavers [10] = assay: Test Example 5: herbicidal effect by foliage application, plastic box (Table 20, symbol Q); type: in vivo, false cleavers (Galium spurium); conditions: foliage application, 320 g/ha, three weeks after application
Summary of the method: as §1

blackgrass [11] = assay: Test Example 4: herbicidal effect by soil treatment (Table 19, symbol J); type: in vivo, blackgrass (Alopecurus myosuroides); conditions: amount of applied herbicide 320 g/ha
Summary of the method: as §2

persian speedwell [12] = assay: Test Example 5: herbicidal effect by foliage application, plastic box (Table 20, symbol R); type: in vivo, Persian speedwell (Veronica persica); conditions: foliage application, 320 g/ha, three weeks after application
Summary of the method: as §1

windgrass [13] = assay: Test Example 5: herbicidal effect by foliage application, plastic box (Table 20, symbol L); type: in vivo, windgrass (Apera spica-venti); conditions: foliage application, 320 g/ha, three weeks after application
Summary of the method: as §1

Italian ryegrass [14] = assay: Test Example 5: herbicidal effect by foliage application, plastic box (Table 20, symbol K); type: in vivo, Italian ryegrass (Lolium multiflorum); conditions: foliage application, 320 g/ha, three weeks after application
Summary of the method: as §1

late watergrass = assay: Test Example 1: herbicidal activity, application before weed generation under submerged conditions (Table 16, symbol A); type: in vivo, late watergrass (Echinochloa oryzicola); conditions: 320 g/ha applied herbicide
Summary of the method: as §3

barnyard grass [15] = assay: Test Example 4: herbicidal effect by soil treatment (Table 19, symbol H); type: in vivo, barnyard grass (Echinochloa crus-galli); conditions: amount of applied herbicide 320 g/ha
Summary of the method: as §2

velvetleaf [16] = assay: Test Example 4: herbicidal effect by soil treatment (Table 19, symbol M); type: in vivo, velvetleaf (Abutilon theophrasti); conditions: amount of applied herbicide 320 g/ha
Summary of the method: as §2

rice flat sedge = assay: Test Example 3: herbicidal effect by foliage application, Wagner pot (Table 18, symbol E); type: in vivo, rice flat sedge (Cyperus iria); conditions: 320 g/ha
Summary of the method: (§4)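 Plants were sown in alluvial soil held under 0.1–0.5 cm standing water and grown 14 days in a greenhouse at 25–30 °C. An emulsifiable formulation, water-diluted to the set dose, was then sprayed onto the foliage, and effects were scored three weeks later using previously defined criteria.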

Italian ryegrass [17] = assay: Test Example 4: herbicidal effect by soil treatment (Table 19, symbol K); type: in vivo, Italian ryegrass (Lolium multiflorum); conditions: amount of applied herbicide 320 g/ha
Summary of the method: as §2

barnyard grass [18] = assay: Test Example 3: herbicidal effect by foliage application, Wagner pot (Table 18, symbol H); type: in vivo, barnyard grass (Echinochloa crus-galli); conditions: 320 g/ha
Summary of the method: as §4

redroot pigweed [19] = assay: Test Example 4: herbicidal effect by soil treatment (Table 19, symbol N); type: in vivo, redroot pigweed (Amaranthus retroflexus); conditions: amount of applied herbicide 320 g/ha
Summary of the method: as §2

lambsquarters [20] = assay: Test Example 5: herbicidal effect by foliage application, plastic box (Table 20, symbol O); type: in vivo, lambsquarters (Chenopodium album); conditions: foliage application, 320 g/ha, three weeks after application
Summary of the method: as §1

velvetleaf [21] = assay: Test Example 5: herbicidal effect by foliage application, plastic box (Table 20, symbol M); type: in vivo, velvetleaf (Abutilon theophrasti); conditions: foliage application, 320 g/ha, three weeks after application
Summary of the method: as §1

green foxtail [22] = assay: Test Example 5: herbicidal effect by foliage application, plastic box (Table 20, symbol G); type: in vivo, green foxtail (Setaria viridis); conditions: foliage application, 320 g/ha, three weeks after application
Summary of the method: as §1

chickweed [23] = assay: Test Example 5: herbicidal effect by foliage application, plastic box (Table 20, symbol P); type: in vivo, common chickweed (Stellaria media); conditions: foliage application, 320 g/ha, three weeks after application
Summary of the method: as §1

Japanese bulrush = assay: Test Example 1: herbicidal activity, application before weed generation under submerged conditions (Table 16, symbol B); type: in vivo, Japanese bulrush (Schoenoplectus juncoides); conditions: 320 g/ha applied herbicide
Summary of the method: as §3

persian speedwell [24] = assay: Test Example 4: herbicidal effect by soil treatment (Table 19, symbol R); type: in vivo, Persian speedwell (Veronica persica); conditions: amount of applied herbicide 320 g/ha
Summary of the method: as §2

false cleavers [25] = assay: Test Example 4: herbicidal effect by soil treatment (Table 19, symbol Q); type: in vivo, false cleavers (Galium spurium); conditions: amount of applied herbicide 320 g/ha
Summary of the method: as §2

barnyard grass [26] = assay: Test Example 5: herbicidal effect by foliage application, plastic box (Table 20, symbol H); type: in vivo, barnyard grass (Echinochloa crus-galli); conditions: foliage application, 320 g/ha, three weeks after application
Summary of the method: as §1

green foxtail [27] = assay: Test Example 4: herbicidal effect by soil treatment (Table 19, symbol G); type: in vivo, green foxtail (Setaria viridis); conditions: amount of applied herbicide 320 g/ha
Summary of the method: as §2

Chinese sprangletop = assay: Test Example 3: herbicidal effect by foliage application, Wagner pot (Table 18, symbol D); type: in vivo, chinese sprangletop (Leptochloa chinensis); conditions: 320 g/ha
Summary of the method: as §4

SMILES	herbicidal effect grade, I: wild oat (wild oat [1])	herbicidal effect rating, L: windgrass (windgrass [2])	herbicidal effect grade, F: southern crabgrass (southern crabgrass [3])	herbicidal effect grade, N: redroot pigweed (redroot pigweed [4])	herbicidal effect grade, J: blackgrass (blackgrass [5])	herbicidal effect rating, O: lambsquarters (lambsquarters [6])	herbicidal effect rating, F: southern crabgrass (southern crabgrass [7])	herbicidal effect rating, I: wild oat (wild oat [8])	herbicidal effect rating, P: chickweed (chickweed [9])	Herbicidal effect on C: oval-leafed pondweed (grade 0-5) (oval-leafed pondweed)	herbicidal effect grade, Q: false cleavers (false cleavers [10])	herbicidal effect rating, J: blackgrass (blackgrass [11])	herbicidal effect grade, R: persian speedwell (persian speedwell [12])	herbicidal effect grade, L: windgrass (windgrass [13])	herbicidal effect grade, K: Italian ryegrass (Italian ryegrass [14])	Herbicidal effect on A: late watergrass (grade 0-5) (late watergrass)	herbicidal effect rating, H: barnyard grass (barnyard grass [15])	herbicidal effect rating, M: velvetleaf (velvetleaf [16])	herbicidal effect on E (rice flat sedge), rating 0-5 (rice flat sedge)	herbicidal effect rating, K: Italian ryegrass (Italian ryegrass [17])	further results
COc1ccc(-c2sc3ccccc3c2-c2c(O)c(C)nn(C)c2=O)cc1F [1-049]	1 (Herbicidal rate of 5% or more and less than 20%)	0 (Herbicidal rate of 5% or less (almost no effect))	4 (Herbicidal rate of 70% or more and less than 90%)	3 (Herbicidal rate of 40% or more and less than 70%)	0 (Herbicidal rate of 5% or less (almost no effect))	3 (Herbicidal rate of 40% or more and less than 70%)	2 (Herbicidal rate of 20% or more and less than 40%)	0 (Herbicidal rate of 5% or less (almost no effect))	3 (Herbicidal rate of 40% or more and less than 70%)	0 (Herbicidal rate of 5% or less (almost no effect))	3 (Herbicidal rate of 40% or more and less than 70%)	0 (Herbicidal rate of 5% or less (almost no effect))	5 (Herbicidal rate of 90% or more (almost completely withered))	0 (Herbicidal rate of 5% or less (almost no effect))	4 (Herbicidal rate of 70% or more and less than 90%)	4 (Herbicidal rate of 70% or more and less than 90%)	3 (Herbicidal rate of 40% or more and less than 70%)	0 (Herbicidal rate of 5% or less (almost no effect))	5 (Herbicidal rate of 90% or more (almost completely withered))	0 (Herbicidal rate of 5% or less (almost no effect))	herbicidal effect on H (barnyard grass), rating 0-5 (barnyard grass [18]): 5 (Herbicidal rate of 90% or more (almost completely withered)); herbicidal effect rating, N: redroot pigweed (redroot pigweed [19]): 4 (Herbicidal rate of 70% or more and less than 90%); herbicidal effect grade, O: lambsquarters (lambsquarters [20]): 3 (Herbicidal rate of 40% or more and less than 70%); herbicidal effect grade, M: velvetleaf (velvetleaf [21]): 5 (Herbicidal rate of 90% or more (almost completely withered)); herbicidal effect grade, G: green foxtail (green foxtail [22]): 4 (Herbicidal rate of 70% or more and less than 90%); herbicidal effect grade, P: chickweed (chickweed [23]): 5 (Herbicidal rate of 90% or more (almost completely withered)); Herbicidal effect on B: Japanese bulrush (grade 0-5) (Japanese bulrush): 1 (Herbicidal rate of 5% or more and less than 20%); herbicidal effect rating, R: persian speedwell (persian speedwell [24]): 4 (Herbicidal rate of 70% or more and less than 90%); herbicidal effect rating, Q: false cleavers (false cleavers [25]): 0 (Herbicidal rate of 5% or less (almost no effect)); herbicidal effect grade, H: barnyard grass (barnyard grass [26]): 4 (Herbicidal rate of 70% or more and less than 90%); herbicidal effect rating, G: green foxtail (green foxtail [27]): 3 (Herbicidal rate of 40% or more and less than 70%); herbicidal effect on D (Chinese sprangletop), rating 0-5 (Chinese sprangletop): 3 (Herbicidal rate of 40% or more and less than 70%)
COc1ccc(F)c(-c2sc3ccccc3c2-c2c(O)c(C)nn(C)c2=O)c1 [1-053]	3 (Herbicidal rate of 40% or more and less than 70%)	0 (Herbicidal rate of 5% or less (almost no effect))	3 (Herbicidal rate of 40% or more and less than 70%)	4 (Herbicidal rate of 70% or more and less than 90%)	2 (Herbicidal rate of 20% or more and less than 40%)	5 (Herbicidal rate of 90% or more (almost completely withered))	2 (Herbicidal rate of 20% or more and less than 40%)	0 (Herbicidal rate of 5% or less (almost no effect))	5 (Herbicidal rate of 90% or more (almost completely withered))	1 (Herbicidal rate of 5% or more and less than 20%)	3 (Herbicidal rate of 40% or more and less than 70%)	0 (Herbicidal rate of 5% or less (almost no effect))	5 (Herbicidal rate of 90% or more (almost completely withered))	3 (Herbicidal rate of 40% or more and less than 70%)	3 (Herbicidal rate of 40% or more and less than 70%)	3 (Herbicidal rate of 40% or more and less than 70%)	1 (Herbicidal rate of 5% or more and less than 20%)	2 (Herbicidal rate of 20% or more and less than 40%)	1 (Herbicidal rate of 5% or more and less than 20%)	3 (Herbicidal rate of 40% or more and less than 70%)	herbicidal effect on H (barnyard grass), rating 0-5 (barnyard grass [18]): 3 (Herbicidal rate of 40% or more and less than 70%); herbicidal effect rating, N: redroot pigweed (redroot pigweed [19]): 4 (Herbicidal rate of 70% or more and less than 90%); herbicidal effect grade, O: lambsquarters (lambsquarters [20]): 4 (Herbicidal rate of 70% or more and less than 90%); herbicidal effect grade, M: velvetleaf (velvetleaf [21]): 5 (Herbicidal rate of 90% or more (almost completely withered)); herbicidal effect grade, G: green foxtail (green foxtail [22]): 4 (Herbicidal rate of 70% or more and less than 90%); herbicidal effect grade, P: chickweed (chickweed [23]): 5 (Herbicidal rate of 90% or more (almost completely withered)); Herbicidal effect on B: Japanese bulrush (grade 0-5) (Japanese bulrush): 2 (Herbicidal rate of 20% or more and less than 40%); herbicidal effect rating, R: persian speedwell (persian speedwell [24]): 3 (Herbicidal rate of 40% or more and less than 70%); herbicidal effect rating, Q: false cleavers (false cleavers [25]): 0 (Herbicidal rate of 5% or less (almost no effect)); herbicidal effect grade, H: barnyard grass (barnyard grass [26]): 3 (Herbicidal rate of 40% or more and less than 70%); herbicidal effect rating, G: green foxtail (green foxtail [27]): 3 (Herbicidal rate of 40% or more and less than 70%); herbicidal effect on D (Chinese sprangletop), rating 0-5 (Chinese sprangletop): 0 (Herbicidal rate of 5% or less (almost no effect))
